# Test results taken from US20160271263A1 (Novo Nordisk A/S, priority 2010, published 2016).
# Numbered stars: 1 amine (or outer) side, 2 acyl side, 3 side chain; on linkers, the order of the positions; unused ones are H or OH. Side chains are listed from the residue outwards. Peptide text beside a SMILES is read from it. * marks the point of attachment. C18 diacid = O=C(O)CCCCCCCCCCCCCCCCC(=O)*; γGlu = O=C(O)[C@H](CCC(=O)[*:2])N[*:1]; AEEA = NCCOCCOCC(=O)O
# Biological target: glucagon receptor (Homo sapiens, UniProt P47871)
# Sequence (P47871 26-477): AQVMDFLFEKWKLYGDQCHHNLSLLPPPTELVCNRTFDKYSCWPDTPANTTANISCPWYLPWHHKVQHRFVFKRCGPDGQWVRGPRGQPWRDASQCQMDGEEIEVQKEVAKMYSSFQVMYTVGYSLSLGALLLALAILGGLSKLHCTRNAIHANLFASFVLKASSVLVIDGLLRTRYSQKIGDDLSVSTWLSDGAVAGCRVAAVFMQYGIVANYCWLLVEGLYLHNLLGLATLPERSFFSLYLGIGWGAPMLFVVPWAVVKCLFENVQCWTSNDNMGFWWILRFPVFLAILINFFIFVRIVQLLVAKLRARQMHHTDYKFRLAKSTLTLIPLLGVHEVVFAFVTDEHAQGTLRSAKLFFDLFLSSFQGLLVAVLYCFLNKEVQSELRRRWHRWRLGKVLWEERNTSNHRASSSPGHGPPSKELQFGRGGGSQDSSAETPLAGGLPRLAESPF
# Assay: cell-based
row,EC50,Compound
1,12 pM,"CC(C)C[C@H](NC(=O)[C@H](Cc1ccc(O)cc1)NC(=O)[C@H](CCCCN)NC(=O)[C@H](CO)NC(=O)[C@H](Cc1ccc(O)cc1)NC(=O)[C@H](CC(=O)O)NC(=O)[C@H](CO)NC(=O)[C@@H](NC(=O)[C@H](Cc1ccccc1)NC(=O)[C@@H](NC(=O)CNC(=O)[C@H](CCC(N)=O)NC(=O)[C@H](CO)NC(=O)[C@@H](N)Cc1c[nH]cn1)[C@@H](C)O)[C@@H](C)O)C(=O)N[C@@H](CC(=O)O)C(=O)N[C@@H](CO)C(=O)N[C@@H](CCCCN)C(=O)N[C@@H](CCCNC(=N)N)C(=O)N[C@@H](C)C(=O)N[C@@H](CCC(N)=O)C(=O)N[C@@H](CCC(=O)O)C(=O)N[C@@H](Cc1ccccc1)C(=O)N[C@H](C(=O)N[C@@H](CCC(N)=O)C(=O)N[C@@H](CCCCNC(=O)COCCOCCNC(=O)COCCOCCNC(=O)CC[C@H](NC(=O)CCCCCCCCCCCCCCCCC(=O)O)C(=O)O)C(=O)N[C@@H](CC(C)C)C(=O)N[C@@H](CC(C)C)C(=O)N[C@@H](CC(N)=O)C(=O)N[C@H](C(N)=O)[C@@H](C)O)C(C)C [Example 44, N^ε25 ([2-[2-[2-[[2-[2-[2-[[(4S)-5-hydroxy-4-[(18-hydroxy-18-oxooctadecanoyl)amino]-5-oxopentanoyl]amino]ethoxy]ethoxy]acetyl]amino]ethoxy]ethoxy]acetyl]) [Lys^17, Glu^21, Lys^25 Leu^27] Glucagon peptide amide] (H-HSQGTFTSDYSKYLDSKRAQEFVQK([AEEA-AEEA-γGlu-C18 diacid])LLNT-NH2; N-terminus assumed)"
2,33 pM,"CC(C)C[C@H](NC(=O)[C@H](Cc1ccc(O)cc1)NC(=O)[C@H](CCCCN)NC(=O)[C@H](CO)NC(=O)[C@H](Cc1ccc(O)cc1)NC(=O)[C@H](CC(=O)O)NC(=O)[C@H](CO)NC(=O)[C@@H](NC(=O)[C@H](Cc1ccccc1)NC(=O)[C@@H](NC(=O)CNC(=O)[C@H](CCC(N)=O)NC(=O)[C@H](CO)NC(=O)[C@@H](N)Cc1c[nH]cn1)[C@@H](C)O)[C@@H](C)O)C(=O)N[C@@H](CC(=O)O)C(=O)N[C@@H](CO)C(=O)N[C@@H](CCCCN)C(=O)N[C@@H](C)C(=O)N[C@@H](C)C(=O)N[C@@H](CCC(N)=O)C(=O)N[C@@H](CCC(=O)O)C(=O)N[C@@H](Cc1ccccc1)C(=O)N[C@H](C(=O)N[C@@H](CCCCNC(=O)COCCOCCNC(=O)COCCOCCNC(=O)CC[C@H](NC(=O)CCCCCCCCCCCCCCCCC(=O)O)C(=O)O)C(=O)N[C@@H](Cc1c[nH]c2ccccc12)C(=O)N[C@@H](CC(C)C)C(=O)N[C@@H](CC(C)C)C(=O)N[C@@H](CC(N)=O)C(=O)N[C@H](C(N)=O)[C@@H](C)O)C(C)C [Example 37, N^ε24-([2-[2-[2-[[2-[2-[2-[[(4S)-5-hydroxy-4-[(18-hydroxy-18-oxooctadecanoyl)amino]-5-oxopentanoyl]amino]ethoxy]ethoxy]acetyl]amino]ethoxy]ethoxy]acetyl])[Lys^17, Ala^18,Glu^21, Lys^24, Leu^27] Glucagon peptide amide] (H-HSQGTFTSDYSKYLDSKAAQEFVK([AEEA-AEEA-γGlu-C18 diacid])WLLNT-NH2; N-terminus assumed)"
3,2200 pM,"CC(C)C[C@H](NC(=O)[C@H](Cc1ccc(O)cc1)NC(=O)[C@H](CCCCN)NC(=O)[C@H](CO)NC(=O)[C@H](Cc1ccc(O)cc1)NC(=O)[C@H](CCC(=O)O)NC(=O)[C@H](CO)NC(=O)[C@@H](NC(=O)[C@H](Cc1ccccc1)NC(=O)[C@@H](NC(=O)CNC(=O)[C@H](CCC(N)=O)NC(=O)[C@H](CO)NC(=O)[C@@H](N)Cc1c[nH]cn1)[C@@H](C)O)[C@@H](C)O)C(=O)N[C@@H](CC(=O)O)C(=O)N[C@@H](CO)C(=O)N[C@@H](CCCNC(=N)N)C(=O)N[C@@H](CCCNC(=N)N)C(=O)N[C@@H](C)C(=O)N[C@@H](CCC(N)=O)C(=O)N[C@@H](CC(=O)O)C(=O)N[C@@H](Cc1ccccc1)C(=O)N[C@H](C(=O)N[C@@H](CCCCNC(=O)CC[C@H](NC(=O)CC[C@H](NC(=O)COCCOCCNC(=O)CC[C@H](NC(=O)CCCCCCCCCCCCCCCCC(=O)O)C(=O)O)C(=O)O)C(=O)O)C(=O)N[C@@H](Cc1c[nH]c2ccccc12)C(=O)N[C@@H](CC(C)C)C(=O)N[C@@H](CC(C)C)C(=O)N[C@@H](CO)C(=O)N[C@H](C(=O)O)[C@@H](C)O)C(C)C [Example 92, N^ε24-[(4S)-4-carboxy-4-[[(4S)-4-carboxy-4-[[2-[2-[2-[[(4S)-4-carboxy-4-(17-carboxyheptadecanoylamino)butanoyl]amino]ethoxy]ethoxy]acetyl]amino]butanoyl]amino]butanoyl]-[Glu^9,Lys^24,Leu^27,Ser^28]-Glucagon]"

# Second part, the compound before the results:
row,Compound,EC50
1,"CC(C)C[C@H](NC(=O)[C@H](Cc1ccc(O)cc1)NC(=O)[C@H](CCCCNC(=O)CC[C@H](NC(=O)CC[C@H](NC(=O)COCCOCCNC(=O)COCCOCCNC(=O)CC[C@H](NC(=O)CCCCCCCCCCCCCCCCC(=O)O)C(=O)O)C(=O)O)C(=O)O)NC(=O)[C@H](CO)NC(=O)[C@H](Cc1ccc(O)cc1)NC(=O)[C@H](CC(=O)O)NC(=O)[C@H](CO)NC(=O)[C@@H](NC(=O)[C@H](Cc1ccccc1)NC(=O)[C@@H](NC(=O)CNC(=O)[C@H](CCC(N)=O)NC(=O)[C@H](CO)NC(=O)[C@@H](N)Cc1c[nH]cn1)[C@@H](C)O)[C@@H](C)O)C(=O)N[C@@H](CC(=O)O)C(=O)N[C@@H](CO)C(=O)N[C@@H](CCCNC(=N)N)C(=O)N[C@@H](CCCNC(=N)N)C(=O)N[C@@H](C)C(=O)N[C@@H](CCC(N)=O)C(=O)N[C@@H](CC(=O)O)C(=O)N[C@@H](Cc1ccccc1)C(=O)N[C@H](C(=O)N[C@@H](CCC(N)=O)C(=O)N[C@@H](Cc1c[nH]c2ccccc12)C(=O)N[C@@H](CC(C)C)C(=O)N[C@@H](CC(C)C)C(=O)N[C@@H](CC(N)=O)C(=O)N1CCC[C@H]1C(=O)O)C(C)C [Example 80, N^ε12-[(4S)-4-carboxy-4-[[(4S)-4-carboxy-4-[[2-[2-[2-[[2-[2-[2-[[(4S)-4-carboxy-4-(17-carboxyheptadecanoylamino)butanoyl]amino]ethoxy]ethoxy]acetyl]amino]ethoxy]ethoxy]acetyl]amino]butanoyl]amino]butanoyl]-[Leu^27,Pro^29]-Glucagon]",1580 pM
2,"CC(C)C[C@H](NC(=O)[C@H](Cc1ccc(O)cc1)NC(=O)[C@H](CCCCN)NC(=O)[C@H](CO)NC(=O)[C@H](Cc1ccc(O)cc1)NC(=O)[C@H](CC(=O)O)NC(=O)[C@H](CO)NC(=O)[C@@H](NC(=O)[C@H](Cc1ccccc1)NC(=O)[C@@H](NC(=O)CNC(=O)[C@H](CCC(N)=O)NC(=O)[C@H](CO)NC(=O)[C@@H](N)Cc1c[nH]cn1)[C@@H](C)O)[C@@H](C)O)C(=O)N[C@@H](CC(=O)O)C(=O)N[C@@H](CO)C(=O)N[C@@H](CCCNC(=N)N)C(=O)N[C@@H](CCCNC(=N)N)C(=O)N[C@@H](C)C(=O)N[C@@H](CCC(N)=O)C(=O)N[C@@H](CC(=O)O)C(=O)N[C@@H](Cc1ccccc1)C(=O)N[C@H](C(=O)N[C@@H](CCC(N)=O)C(=O)N[C@@H](Cc1c[nH]c2ccccc12)C(=O)N[C@@H](CC(C)C)C(=O)N[C@@H](CC(C)C)C(=O)N[C@@H](CCCCNC(=O)CC[C@H](NC(=O)CC[C@H](NC(=O)COCCOCCNC(=O)COCCOCCNC(=O)CC[C@H](NC(=O)CCCCCCCCCCCCCCCCC(=O)O)C(=O)O)C(=O)O)C(=O)O)C(=O)N[C@H](C(=O)N1CCC[C@H]1C(=O)O)[C@@H](C)O)C(C)C [Example 82, N^ε28-[(4S)-4-carboxy-4-[[(4S)-4-carboxy-4-[[2-[2-[2-[[2-[2-[2-[[(4S)-4-carboxy-4-(17-carboxyheptadecanoylamino)butanoyl]amino]ethoxy]ethoxy]acetyl]amino]ethoxy]ethoxy]acetyl]amino]butanoyl]amino]butanoyl]-[Leu^27,Lys^28]-Glucagonyl-Pro]",128 pM
